From US20210380548A1, “Fused [1,2,4]Thiadiazine Derivatives Which Act as KAT Inhibitors of the MYST Family” (CTxT Pty Limited, priority 2017, published 2021)

What was measured:
TIP60-KAT5 [1] = target: T1, TIP60-KAT5 (Homo sapiens, UniProt Q92993); assay: Acetyltransferase biochemical assay (AlphaScreen), KAT5; conditions: Table 1 (TIP60-KAT5); 0.4 μM Acetyl coenzyme A, histone H4, 10 nM enzyme
T1 construct: encoding amino acid residues 2 to 461 (Uniprot Q92993-2) of human KAT5 isoform; made in house; host or cells: E. coli BL21 DE3

MOZ-KAT6A [2] = target: T2, MOZ-KAT6A (Homo sapiens, UniProt Q92794, A567V); assay: Revised Acetyltransferase Biochemical Assay, KAT6A; conditions: Table 8 (MOZ-KAT6A), 1 μM Acetyl coenzyme A
T2 construct: encoding amino acid residues 507 to 778 (Uniprot Q92794-1) of human KAT6A; made in house; host or cells: E. coli BL21 DE3

MOZ-KAT6A [3] = target: T2, MOZ-KAT6A; assay: Acetyltransferase biochemical assay (AlphaScreen), KAT6A; conditions: Table 2 (MOZ-KAT6A); 10 μM Acetyl coenzyme A, histone H3.1, 5 nM enzyme
TIP60-KAT5 [4] = target: T1, TIP60-KAT5; assay: Revised Acetyltransferase Biochemical Assay, KAT5; conditions: 10 nM KAT5, 1 μM AcCoA, 100 nM histone H4, 90 min
HBO-KAT7 [5] = target: T3, HBO-KAT7 (Homo sapiens, UniProt O95251); assay: Revised Acetyltransferase Biochemical Assay, KAT7; conditions: Table 9 (HBO-KAT7), 1 μM Acetyl coenzyme A
T3 construct: encoding amino acid residues 325 to 611 (Uniprot 095251-1) of human KAT7; made in house; host or cells: E. coli BL21 DE3 RIL

HBO-KAT7 [6] = target: T3, HBO-KAT7; assay: Acetyltransferase biochemical assay (AlphaScreen), KAT7; conditions: Table 3 (HBO-KAT7); 0.4 μM Acetyl coenzyme A, histone H3.1, 40 nM enzyme

T2 sequence (Q92794 507-778 A567V limits assumed): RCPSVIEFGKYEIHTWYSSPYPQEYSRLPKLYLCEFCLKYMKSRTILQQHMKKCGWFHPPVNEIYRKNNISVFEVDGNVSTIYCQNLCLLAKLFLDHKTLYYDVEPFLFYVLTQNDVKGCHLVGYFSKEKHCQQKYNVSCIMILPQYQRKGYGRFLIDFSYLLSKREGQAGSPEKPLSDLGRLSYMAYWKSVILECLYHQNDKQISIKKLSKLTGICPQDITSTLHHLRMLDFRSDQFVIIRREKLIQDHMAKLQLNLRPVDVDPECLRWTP
T1 sequence (Q92993 2-461 isoform Q92993-2): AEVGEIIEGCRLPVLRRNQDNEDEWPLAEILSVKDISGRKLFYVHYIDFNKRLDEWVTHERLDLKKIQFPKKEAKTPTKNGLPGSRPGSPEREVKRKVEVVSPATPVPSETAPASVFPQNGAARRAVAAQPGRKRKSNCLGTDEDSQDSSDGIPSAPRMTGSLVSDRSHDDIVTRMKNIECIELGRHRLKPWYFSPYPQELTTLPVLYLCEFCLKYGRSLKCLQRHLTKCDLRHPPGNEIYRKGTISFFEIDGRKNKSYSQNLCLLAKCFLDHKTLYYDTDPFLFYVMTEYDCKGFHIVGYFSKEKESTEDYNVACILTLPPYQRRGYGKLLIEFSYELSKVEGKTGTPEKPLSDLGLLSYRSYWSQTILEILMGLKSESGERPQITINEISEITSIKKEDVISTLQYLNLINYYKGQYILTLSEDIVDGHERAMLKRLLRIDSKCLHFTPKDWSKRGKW
T3 sequence (O95251 with tags, fused parts or gaps): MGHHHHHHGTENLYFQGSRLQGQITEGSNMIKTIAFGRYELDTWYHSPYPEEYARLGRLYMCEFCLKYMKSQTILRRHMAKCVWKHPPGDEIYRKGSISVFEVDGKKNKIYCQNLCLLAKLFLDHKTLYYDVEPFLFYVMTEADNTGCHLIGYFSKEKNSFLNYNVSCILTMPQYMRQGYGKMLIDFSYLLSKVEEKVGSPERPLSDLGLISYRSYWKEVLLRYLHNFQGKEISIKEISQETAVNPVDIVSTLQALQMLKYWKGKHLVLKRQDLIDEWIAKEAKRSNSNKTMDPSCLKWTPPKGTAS

| Structure (SMILES) | IC50 (TIP60-KAT5 [1]) [µM] | IC50 (MOZ-KAT6A [2]) [µM] | IC50 (MOZ-KAT6A [3]) [µM] | IC50 (TIP60-KAT5 [4]) [µM] | IC50 (HBO-KAT7 [5]) [µM] | IC50 (HBO-KAT7 [6]) [µM] |
| --- | --- | --- | --- | --- | --- | --- |
| O=C(NCC(c1ccccc1)c1ncco1)C1=Nc2ccc(-c3cnn(CCO)c3)cc2S(=O)(=O)N1 (centres unmarked) [Example 10, 7-(1-(2-Hydroxyethyl)-1H-pyrazol-4-yl)-N-(2-(oxazol-2-yl)-2-phenylethyl)-2H-benzo[e][1,2,4]thiadiazine-3-carboxamide 1,1-dioxide] | 79.7 | – | 0.0906 | – | – | – |
| O=C(NCC(c1ccccc1)c1ccccc1)C1=Nc2ccc(Br)cc2S(=O)(=O)N1 [Example 15, 7-Bromo-N-(2,2-diphenylethyl)-2H-benzo[e][1,2,4]thiadiazine-3-carboxamide 1,1-dioxide] | 1.4 | 0.682 | 0.211 | 5.55 | 0.874 | – |
| Cc1ccc2c(c1)S(=O)(=O)NC(C(=O)NCC(c1ccccc1)c1ccccc1)=N2 [Example 16, N-(2,2-Diphenylethyl)-7-methyl-2H-benzo[e][1,2,4]thiadiazine-3-carboxamide 1,1-dioxide] | 23.8 | – | 1.37 | – | – | – |
| O=C(NCC(c1ccccc1)c1ccccc1)C1=Nc2ccc(C3CC3)cc2S(=O)(=O)N1 [Example 17, 7-Cyclopropyl-N-(2,2-diphenylethyl)-2H-benzo[e][1,2,4]thiadiazine-3-carboxamide 1,1-dioxide] | 51 | – | 3.33 | – | – | – |
| O=C(NCC(c1ccccc1)c1ccccc1)C1=Nc2ccc(-c3ccn[nH]3)cc2S(=O)(=O)N1 [Example 22, N-(2,2-diphenylethyl)-7-(1H-pyrazol-5-yl)-2H-benzo[e][1,2,4]thiadiazine-3-carboxamide 1,1-dioxide] | 72.4 | – | 1.98 | – | – | – |
| COC(=O)c1ccc2c(c1)S(=O)(=O)NC(C(=O)NCC(c1ccccc1)c1ncco1)=N2 (centres unmarked) [Example 23, Methyl 3-((2-(oxazol-2-yl)-2-phenylethyl)carbamoyl)-2H-benzo[e][1,2,4]thiadiazine-7-carboxylate 1,1-dioxide] | 3.73 | 0.12 | 0.056 | 1.73 | 2.88 | – |
| NC(=O)c1ccc2c(c1)S(=O)(=O)NC(C(=O)NCC(c1ccccc1)c1ncco1)=N2 (centres unmarked) [Example 27, N^3-(2-(Oxazol-2-yl)-2-phenylethyl)-2H-benzo[e][1,2,4]thiadiazine-3,7-dicarboxamide 1,1-dioxide] | 1.29 | – | 0.0195 | – | – | – |
| O=C(NCC(c1ccccc1)c1ccccc1)C1=Nc2ccc(-c3cccnc3)cc2S(=O)(=O)N1 [Example 37, N-(2,2-diphenylethyl)-7-(pyridin-3-yl)-2H-benzo[e][1,2,4]thiadiazine-3-carboxamide 1,1-dioxide] | 44 | – | 0.771 | – | – | – |
| CNC(=O)C(CNC(=O)C1=Nc2ccccc2S(=O)(=O)N1)c1ccccc1 (centres unmarked) [Example 45, N-(3-(methylamino)-3-oxo-2-phenylpropyl)-2H-benzo[e][1,2,4]thiadiazine-3-carboxamide 1,1-dioxide] | 109 | – | 35.2 | – | – | – |
| O=C(NCC(OC(=O)N1CCC1)c1ccccc1)C1=Nc2ccccc2S(=O)(=O)N1 (centres unmarked) [Example 51, 2-(1,1-dioxido-2H-benzo[e][1,2,4]thiadiazine-3-carboxamido)-1-phenylethyl azetidine-1-carboxylate] | 25.3 | – | 4.82 | – | – | – |
| O=C(NCC(c1ccccc1)n1ccnn1)C1=Nc2ccccc2S(=O)(=O)N1 (centres unmarked) [Example 52, N-(2-phenyl-2-(1H-1,2,3-triazol-1-yl)ethyl)-2H-benzo[e][1,2,4]thiadiazine-3-carboxamide 1,1-dioxide] | – | – | 36.1 | – | – | – |
| Cc1coc(C(CNC(=O)C2=Nc3ccccc3S(=O)(=O)N2)c2ccccc2)n1 (centres unmarked) [Example 53, N-(2-(4-methyloxazol-2-yl)-2-phenylethyl)-2H-benzo[e][1,2,4]thiadiazine-3-carboxamide 1,1-dioxide] | 19.8 | – | 0.273 | – | – | – |
| O=C(NCCc1cccc(F)c1)C1=Nc2ccccc2S(=O)(=O)N1 [Example 61] | > 125 | – | > 125 | – | – | – |
| COc1cccc(CCNC(=O)C2=Nc3ccccc3S(=O)(=O)N2)c1 [Example 62] | > 125 | – | > 125 | – | – | – |
| O=C(NCCc1ccccc1F)C1=Nc2ccccc2S(=O)(=O)N1 [Example 63] | > 125 | – | > 125 | – | – | – |
| COc1ccccc1CCNC(=O)C1=Nc2ccccc2S(=O)(=O)N1 [Example 64] | 92.1 | – | 102 | – | – | – |
| O=C(NCCc1ccccc1C(F)(F)F)C1=Nc2ccccc2S(=O)(=O)N1 [Example 65] | 85.4 | – | 53.9 | – | – | – |
| O=C(NCCc1ccc(F)cc1)C1=Nc2ccccc2S(=O)(=O)N1 [Example 66] | > 125 | – | > 125 | – | – | – |
| Cc1ccc(CCNC(=O)C2=Nc3ccccc3S(=O)(=O)N2)cc1 [Example 67] | > 125 | – | > 125 | – | – | – |
| O=C(NCCc1ccc(Cl)cc1)C1=Nc2ccccc2S(=O)(=O)N1 [Example 69] | > 125 | – | > 125 | – | – | – |
| O=C(NCCc1cccnc1)C1=Nc2ccccc2S(=O)(=O)N1 [Example 70] | > 125 | – | > 125 | – | – | – |
| COC(CNC(=O)C1=Nc2ccccc2S(=O)(=O)N1)c1ccccc1 (centres unmarked) [Example 74] | > 125 | – | 67.5 | – | – | – |
| O=C(NCC(O)c1ccccc1)C1=Nc2ccccc2S(=O)(=O)N1 (centres unmarked) [Example 76] | > 125 | – | > 125 | – | – | – |

The next lines start with the values.

| IC50 (TIP60-KAT5 [1]) [µM] | IC50 (MOZ-KAT6A [2]) [µM] | IC50 (MOZ-KAT6A [3]) [µM] | IC50 (TIP60-KAT5 [4]) [µM] | IC50 (HBO-KAT7 [5]) [µM] | IC50 (HBO-KAT7 [6]) [µM] | Structure (SMILES) |
| --- | --- | --- | --- | --- | --- | --- |
| 18.9 | 0.649 | 3.73 | 7.46 | – | – | O=C(NCC(c1ccccc1)c1ncco1)C1=Nc2ccc(F)cc2S(=O)(=O)N1 (single isomer, unassigned) [Example 145] |
| 45.7 | – | 5.39 | – | – | – | O=C(NCC(c1ccccc1)c1ncco1)C1=Nc2ccc(O)cc2S(=O)(=O)N1 (single isomer, unassigned) [Example 148] |
| 4.88 | – | 0.102 | – | – | – | O=C(NCC(c1ccccc1)c1ncco1)C1=Nc2ccc(O)cc2S(=O)(=O)N1 (single isomer, unassigned) [Example 149] |
| 52.8 | – | 47.5 | – | – | – | O=C(NCC(c1ccccc1)c1ncc[nH]1)C1=Nc2ccccc2S(=O)(=O)N1 (single isomer, unassigned) [Example 152] |
| 87 | – | 35.5 | – | – | – | O=C(NCC(Oc1ccccc1)c1ccccc1)C1=Nc2ccccc2S(=O)(=O)N1 (centres unmarked) [Example 77] |
| 7.38 | – | 2.61 | – | – | – | N#Cc1ccccc1CCNC(=O)C1=Nc2ccc(Br)cc2S(=O)(=O)N1 [Example 83] |
| 5.97 | – | 8.1 | – | – | – | O=C(NCC(c1ccccc1)c1cc2ccccc2[nH]1)C1=Nc2ccc(Br)cc2S(=O)(=O)N1 (centres unmarked) [Example 85] |
| 61.2 | – | – | – | – | 34.7 | O=C(NCC(O)c1ccc(F)cc1)C1=Nc2ccc(I)cc2S(=O)(=O)N1 (centres unmarked) [Example 127] |
| > 125 | – | – | – | – | > 125 | O=C(NCC(O)c1cccc(C(F)(F)F)c1)C1=Nc2ccc(I)cc2S(=O)(=O)N1 (centres unmarked) [Example 128] |
| > 125 | – | 62.3 | – | – | – | CCNC(=O)C(CNC(=O)C1=Nc2ccccc2S(=O)(=O)N1)c1ccccc1 (centres unmarked) [Example 131] |
| > 125 | – | > 125 | – | – | – | O=C(NCC(C(=O)N1CCCCC1)c1ccccc1)C1=Nc2ccccc2S(=O)(=O)N1 (centres unmarked) [Example 133] |
| > 125 | – | > 125 | – | – | – | O=C(NCC(C(=O)O)c1ccccc1)C1=Nc2ccccc2S(=O)(=O)N1 (centres unmarked) [Example 154, 3-(1,1-Dioxido-2H-benzo[e][1,2,4]thiadiazine-3-carboxamido)-2-phenylpropanoic Acid] |
